Several values for one entry are separate records, joined by “and”; a condition that tells them apart may be missing. Identical values can stand only once. Like-named read-outs stand apart in the source and are kept apart here. Non-standard residues stand in square brackets, D forms with d. Residues, ends and D or L forms follow the SMILES beside them. Nle = CCCC[C@H](N)C(=O)O
How the values were obtained:
Assay type in all cases: cell-based
FYVE-RFP = test: High-content analysis of FYVE-RFP fluorescence (PI(3)P level) in H4-FYVE cell line
Excerpt: Class III PI(3)K Vps34 is a multifunctional protein. On the one hand, it catalyzes the phosphorylation of PI to generate PI(3)P and is of key importance in the endocytic and autophagosome membrane transport processes. At the same time, a compound formed from Vps34/beclin1 is involved in the regulation of autophagy initiation signaling. Therefore, while the autophagy process is taking place, the level of PtdIns(3)P should not be expected to decrease to a significant extent. A FYVE domain is a protein structure domain composed of approximately 70 amino acid residues and containing a zinc finger protein structure; it can bind specifically with PI(3)P. Generally, PI(3)P recruits proteins containing a FYVE domain in order to bind to the membrane of cellular organelles, and participate in protein trafficking and similar processes.
H4 cells were transfected with the fusion protein FYVP-red fluorescent protein (FYVE-RFP). After transfection, the cells were screened in order to obtain a suitable H4-FYVE cell line to be used as a screening platform to perform high-volume screening of compounds, which thereby indirectly reflected the effect of the compound on autophagy. Compounds which reduced FYVE-RFP fluorescence intensity were eliminated. In this experiment, change in the intensity, fluorescence and distribution of the protein marker FYVE-RFP recruited by PI(3)P before and after treatment with the potential autophagy inducing compound was assayed by high-content microscopic analysis.
DMSO was used to dilute, dissolve, and prepare a compound at different concentrations with each concentration repeated three times. A 96-well plate was inoculated with H4-FYVE cells at an appropriate density and treated with the compound for 2, 4, and 8 hours, respectively. […] If a compound affected FYVE expression or distribution, then this would be embodied precisely in the image and in the size and intensity of fluorescent spots and other numerical values.

long-lived proteins = test: Degradation of (3H) L-leucine labelled long-lived proteins in H4 cells; details: relative to blank control
Excerpt: The process of autophagy is a protein degradation process, which primarily mediates the degradation of cellular organelles and long-lived proteins within the cell. Therefore, in the present experiment the detection of whether a compound promotes the degradation of long-lived proteins within the cell was used as an additional indicator of whether the tested compound induces autophagy.
DMSO was used to dilute, dissolve, and prepare a compound at different concentrations with each concentration repeated three times. A 96-well plate was inoculated with H4 cells at an appropriate density and treated with the compound for 2, 4, and 24 hours, respectively. […] One day prior to the experiment, cells were inoculated onto a 12-well plate at an appropriate density and cultured under normal conditions (DMEM +10% fetal calf serum). […] Then, a complete medium containing (3H) L-leucine was used to incubate the cells for 24 hours causing the cells to take in isotope-labeled leucine and undertake protein synthesis. After 24 hours, a complete culture medium was substituted and used to incubate the cells for 24 hours to degrade short-lived proteins. After the short-lived proteins had been degraded, a complete culture medium to which the compound had been added was substituted and used to incubate the cells. The radiation intensity of the culture medium was tested at 0, 1, 2, 4, and 24 hours, respectively. At 24 hours, the cells were collected and the intensity of the isotope within the cells was tested, and the percent of long-lived protein degradation relative to the blank control group at different times after the action of the compound was computed. Compounds that increased the degradation of long-lived proteins were selected by means oft-test.

LC3 II = test: Western blot of LC3 II in H4-LC cells
Excerpt: The autophagosome marker LC3 used in the compound-screening platform was subjected to the foregoing processing in the cytosol. Generally when the new LC3 synthesized within the cell was processed, it became cytosolic soluble LC3 I with molecular weight 18 Kd. […] The quantity of LC3 II content reflects to a certain degree the autophagic activity of a cell. Therefore, by assaying the content of LC3 II in the cell by means of the Western blot method, it is possible to further reflect the effect of the compound on autophagy.
H4-LC cells at an appropriate density were inoculated onto a 6-well plate, which was treated with a compound for 4 hours, after which the cells were collected and lysed. The protein fraction was harvested and SDS-PAGE was performed. Following electrophoresis separation the proteins were transferred to a membrane, and immunoblot analysis was performed. The cytoskeleton protein, actin, was used as an internal control.

GFP-polyQ-HA = test: Degradation of expanded polyglutamine (GFP-polyQ-HA) in transfected H4 cells, anti-HA blot
Experimental: Large-scale accumulation of misfolded protein is a prominent feature of many neurodegenerative diseases. For example, the pathogenic mechanism of Huntington's disease is that a large amount of polyglutamine (polyQ) protein accumulates in the neurons and cannot be cleared away. Tests of polyQ elimination and degradation were used in this experiment to further determine the ability if the tested compounds to induce autophagy.
The compounds selected through screening were dissolved in DMSO and diluted in a stepwise manner in complete culture medium.

[1] = H4-LC cells, 4 hours, immunoblot, FIG. 1
[2] = H4 cells transfected with GFP-polyQ-HA, 24 hours, screening concentration and dilutions 1:2.5, 1:5, 1:10, FIG. 2

SMILES | Relative fluorescent intensity of FYVE-RFP (%) (FYVE-RFP; H4-FYVE cells, 2 h) | Relative fluorescent intensity of FYVE-RFP (%) (FYVE-RFP; H4-FYVE cells, 4 h) | Relative fluorescent intensity of FYVE-RFP (%) (FYVE-RFP; H4-FYVE cells, 8 h) | also measured
CN(CCc1ccc(Cl)c(Cl)c1)CC(O)COc1ccc(NS(C)(=O)=O)cc1 (stereo not shown) [AM 92016] | 68.06 ± 1.20 | 71.97 ± 15.67 | 66.35 ± 17.66 | 
CCN(CC)CCCCCCCCOC(=O)c1cc(OC)c(OC)c(OC)c1 [TMB-8] | 89.59 ± 4.79 | 74.72 ± 13.74 | 78.64 ± 10.26 | 
CN(C)C[C@H](O)Cn1c2ccc(Br)cc2c2cc(Br)ccc21 (racemic) [Wiskostatin] | 267.90 ± 6.16 | 240.08 ± 4.26 | 131.93 ± 11.05 | 
COC(=O)C1=C(C)NC(C)=C(C(=O)OCCN(C)Cc2ccccc2)C1c1cccc([N+](=O)[O-])c1.Cl (stereo not shown) [Nicardipine] | 132.05 ± 19.93 | 112.51 ± 10.09 | 104.77 ± 31.63 | Percent relative degradation of long-lived proteins (%) (long-lived proteins; 1 h): 84.62 ± 4.48%; Percent relative degradation of long-lived proteins (%) (long-lived proteins; 2 h): 126.59 ± 3.83%; Percent relative degradation of long-lived proteins (%) (long-lived proteins; 4 h): 122.60 ± 7.70%; Percent relative degradation of long-lived proteins (%) (long-lived proteins; 24 h): 121.03 ± 13.43%; Increase of endogenous LC3 II / LC3 II/LC3 I percentage (LC3 II; [1]): increase of endogenous LC3 II; polyQ degradation (GFP-polyQ-HA; [2]): increased polyQ degradation
CCCCc1oc2ccccc2c1C(=O)c1cc(I)c(OCCN(CC)CC)c(I)c1.Cl [Amiodarone] |  |  |  | Relative fluorescent intensity of FYVE-RFP (%) (FYVE-RFP): 92.50 ± 5.51% and 89.23 ± 3.47% and 83.45 ± 3.64%; Percent relative degradation of long-lived proteins (%) (long-lived proteins; 1 h): 101.32 ± 5.95%; Percent relative degradation of long-lived proteins (%) (long-lived proteins; 2 h): 122.42 ± 9.71%; Percent relative degradation of long-lived proteins (%) (long-lived proteins; 4 h): 110.75 ± 3.68%; Percent relative degradation of long-lived proteins (%) (long-lived proteins; 24 h): 116.73 ± 5.54%; Increase of endogenous LC3 II / LC3 II/LC3 I percentage (LC3 II; [1]): increase of endogenous LC3 II; polyQ degradation (GFP-polyQ-HA): increased polyQ degradation
CN1CCN(C2=Nc3cc(Cl)ccc3Nc3ccccc32)CC1 [Clozapine] | 64.04 ± 2.94 | 74.79 ± 13.43 | 78.38 ± 1.35 | 
CC[C@H](C)[C@H](NS(=O)(=O)c1ccc2ccccc2c1)C(=O)N[C@H](C=O)Cc1c[nH]c2ccccc12 [NapSul-Ile-Trp-CHO] | 89.37 ± 3.52 | 64.10 ± 11.47 | 62.34 ± 8.21 | 
N#Cc1cc2c(OCC(O)CN3CCN(C(c4ccccc4)c4ccccc4)CC3)cccc2[nH]1 (stereo not shown) [SDZ-201106] | 65.87 ± 4.72 | 59.79 ± 2.38 | 72.40 ± 20.27 | 
C=C[C@H]1C[N@@]2CC[C@H]1C[C@H]2[C@H](O)c1ccnc2ccc(OC)cc12 [Quinine] | 70.35 ± 10.23 | 78.03 ± 6.33 | 60.70 ± 6.59 | 
CN(C)C(=O)C(CCN1CCC(O)(c2ccc(Cl)cc2)CC1)(c1ccccc1)c1ccccc1.Cl [Loperamide] |  |  |  | Increase of endogenous LC3 II / LC3 II/LC3 I percentage (LC3 II): increase of endogenous LC3 II
COC(=O)C1=C(C)NC(C)=C([N+](=O)[O-])C1c1ccccc1C(F)(F)F (stereo not shown) [Bay K-8644] | 110.18 ± 25.18 | 57.79 ± 3.76 | 79.70 ± 7.28 | 
CCCC[C@@H](C=O)NC(=O)[C@H](CC(C)C)NC(=O)[C@H](CC(C)C)NC(C)=O [Ac-Leu-Leu-Nle-CHO] (Ac-Leu-Leu-[Nle]-aldehyde) | 72.86 ± 10.18 | 84.85 ± 2.83 | 88.42 ± 6.29 | 
O=C(/C=C/c1ccc(O)c(O)c1)OCCc1ccccc1 [CAPE] | 86.89 ± 20.98 | 71.17 ± 18.70 | 69.14 ± 4.32 | 
CC1=C2C[C@H]3[C@@H](CC=C4C[C@@H](O)CC[C@@]43C)[C@@H]2CC[C@]12O[C@@H]1C[C@H](C)CN[C@H]1[C@H]2C [Cyclopamine] | 108.75 ± 12.44 | 75.21 ± 1.18 | 96.38 ± 5.12 | 
O=C1NCN(c2ccccc2)C12CCN(CCCC(c1ccc(F)cc1)c1ccc(F)cc1)CC2 [Fluspirilene] |  |  |  | polyQ degradation (GFP-polyQ-HA; [2]): increased polyQ degradation
COC(=O)[C@@]1(O)C[C@H]2O[C@]1(C)n1c3ccccc3c3c4c(c5c6ccccc6n2c5c31)C(=O)NC4 [K252A] | 76.86 ± 6.51 | 65.58 ± 9.36 | 70.33 ± 5.89 | 
CC/C(=C(\c1ccccc1)c1ccc(OCCN(C)C)cc1)c1ccccc1 [Tamoxifen] | 77.66 ± 4.43 | 71.55 ± 0.73 | 85.37 ± 7.59 | 
CCCNC(=O)[C@H]1O[C@@H]1C(=O)N[C@H](C(=O)N1CCC[C@H]1C(=O)OC)[C@@H](C)CC [CA-074-Me] | 65.94 ± 12.73 | 79.82 ± 4.66 | 86.43 ± 4.15 | 
CC(C)(O)[C@H]1O[C@H]2CC[C@@]3(C)[C@@](O)(CC[C@H]4Cc5c([nH]c6ccccc56)[C@@]43C)C2=CC1=O [Paxilline] | 100.56 ± 0.58 | 52.37 ± 1.65 | 56.82 ± 4.44 | 
CO[C@H]1C[C@@H]2CC[C@@H](C)[C@@](O)(O2)C(=O)C(=O)N2CCCC[C@H]2C(=O)O[C@H]([C@H](C)C[C@@H]2CC[C@@H](O)[C@H](OC)C2)CC(=O)[C@H](C)/C=C(\C)[C@@H](O)[C@@H](OC)C(=O)[C@H](C)C[C@H](C)/C=C/C=C/C=C/1C [Rapamycin] |  | 131.41 ± 26.64 |  | 
CCCNCC(O)COc1ccccc1C(=O)CCc1ccccc1 (stereo not shown) [Propafenone] | 114.69 ± 8.90 | 78.75 ± 18.93 | 62.87 ± 3.38 | 
COC(=O)c1c(C)[nH]c(C)c1C(=O)c1ccccc1Cc1ccccc1 [FPL-64176] | 99.43 ± 9.62 | 78.17 ± 1.90 | 87.62 ± 2.42 | 
CO[C@@H]1C[C@@H](C[C@H]2CC[C@H](C)[C@H]([C@@H](C)C(=O)O)O2)O[C@]2(O[C@](C)([C@H]3CC[C@@](C)([C@@H]4O[C@@H]([C@H]5O[C@@](O)(CO)[C@H](C)C[C@@H]5C)C[C@@H]4C)O3)C[C@H]2C)[C@@H]1C [Nigericin] | 148.43 ± 5.17 | 145.40 ± 8.39 | 140.54 ± 18.21 | 
